The source made the active and inactive calls. The rule behind the calls is not given here.

Assay [1] concerns the target T1, Sialidase (Clostridium perfringens) (UniProt P10481).
T1 sequence (whole entry): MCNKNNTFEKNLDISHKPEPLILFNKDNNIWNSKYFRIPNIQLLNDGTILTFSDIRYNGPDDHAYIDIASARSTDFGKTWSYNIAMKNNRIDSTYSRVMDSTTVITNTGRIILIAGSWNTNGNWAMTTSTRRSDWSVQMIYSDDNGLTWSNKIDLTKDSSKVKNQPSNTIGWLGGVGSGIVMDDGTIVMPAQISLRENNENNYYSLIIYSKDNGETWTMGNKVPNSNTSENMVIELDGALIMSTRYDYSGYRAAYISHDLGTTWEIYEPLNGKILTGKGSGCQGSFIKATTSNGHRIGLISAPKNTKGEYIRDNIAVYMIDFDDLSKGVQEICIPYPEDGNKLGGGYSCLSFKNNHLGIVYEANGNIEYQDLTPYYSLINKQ
In words: Inhibition of Clostridium perfringens neuraminidase at 100 ug/mL.

The target in the next assay is T2, Sialidase (Clostridium perfringens, UniProt P10481).
T2 sequence (P10481 whole entry): T1 sequence (whole entry)
Description: Inhibition of Clostridium perfringens neuraminidase.

As for `COC(=O)[C@H]1O[C@@H](O[C@H]2[C@H](O)[C@@H](O)[C@H](O[C@H]3CC[C@]4(C)C5=C(CC[C@H]4C3(C)C)[C@]3(C(=O)OC)CC[C@H]([C@H](C)CCC=C(C)C)[C@@]3(C)CC5)O[C@@H]2C(=O)OC)[C@H](O)[C@@H](O[C@@H]2OC[C@H](O)[C@H](O)[C@H]2O)[C@H]1O`, in assay [1], the outcome was inactive.

`CC(C)=CCC[C@@H](C)[C@H]1CC[C@@]2(C(=O)O)C3=C(CC[C@]12C)[C@@]1(C)CC[C@H](O[C@@H]2O[C@H](C(=O)O)[C@@H](O[C@@H]4O[C@H](C(=O)O)[C@H](O)[C@H](O[C@@H]5OC[C@H](O)[C@H](O)[C@H]5O)[C@H]4O)[C@H](O)[C@H]2O)C(C)(C)[C@@H]1CC3` [NOBILOSIDE] had an IC50 on Sialidase of 489 nM.

The record behind these values is ChEMBL document CHEMBL1148109, “Nobiloside, a new neuraminidase inhibitory triterpenoidal saponin from the marine sponge Erylus nobilis” (J Nat Prod, 2002).
